Assay results from patent publication US7465814B2, “Sulfonate compound and fluorescent probe using the same” (priority 2003, dated 2008).

Legend:
[1] = Fluorescent response to ascorbic acid (Table 1); format: biochemical; conditions: relative fluorescence intensity, blank = 10; probe 21.3 μM, ascorbic acid 50 μM, 37° C., 10 minutes
Description: (§1) Moreover, in other conditions than those of the above-described tests, reactivity of all of the compounds 1a to 1d with H2O2, other various kinds of nucleophilic agents, reducing agents and the like also was tested, respectively. More specifically, fluorescent responses of 1a to 1d with respect to a XO-HPX system, a XO-HPX-SOD system, H2O2, ascorbic acid, 1,4-hydroquinone, propylamine, diethylamine, glucose, esterase, a cytochrome P450 reductase+NADPH system, and a diaphorase+NADH system were measured, respectively. Operational processes thereof will be described below. Firstly, 1a to 1d and the above-described reagents were dissolved in HEPES of 10 mM having a pH of 7.4 so as to prepare solutions, respectively. Next, a 96 wellmicroplate was provided, where any of the solutions of 1a to 1d (25 μM, 170 μL) was poured into each of the wells, and furthermore, 30 μL of a blank solution or 30 μL of the solution of the reagent to be reacted therewith was added thereto. Final concentrations of the solutions in the wells were adjusted so that concentrations of the solutions of 1a to 1d respectively could be 21.3 μM, that of XO could be 13.1 mU/mL, those of HPX, H2O2, ascorbic acid, 1,4-hydroquinone, propylamine, diethylamine, glucose, NADPH and NADH respectively could be 50 μM, that of cytochrome P450 reductase could be 68 mU/mL, that of diaphorase could be 65 mU/mL, and that of esterase could be 0.5 U/mL, respectively. Then, after they reacted in the wells at 37° C. for 10 minutes, fluorescent responses were measured respectively. Fluorescence intensity measurement was conducted by using an ETC-272 Peltier thermostatted single cell holder (trade name) manufactured by JASCO Corporation or a SpectraMax GeminiEM fluorescence plate reader (trade name) manufactured by Molecular Devices Corporation provided with a FP-750 spectrofluorometer (trade name) manufactured by JASCO Corporation, and by setting excitation wavelengths and emission wavelengths so that those of 1a, 1b and 1c respectively could be 485 nm and 515 nm, and those of 1d respectively could be 511 nm and 540 nm.

[2] = Fluorescent response to propylamine (Table 1); format: biochemical; conditions: relative fluorescence intensity, blank = 10; probe 21.3 μM, propylamine 50 μM, 37° C., 10 minutes
Description: as §1

[3] = Fluorescent response to diethylamine (Table 1); format: biochemical; conditions: relative fluorescence intensity, blank = 10; probe 21.3 μM, diethylamine 50 μM, 37° C., 10 minutes
Description: as §1

[4] = Fluorescent response to glucose (Table 1); format: biochemical; conditions: relative fluorescence intensity, blank = 10; probe 21.3 μM, glucose 50 μM, 37° C., 10 minutes
Description: as §1

[5] = system: neutrophils stimulated by phorbol myristate acetate (PMA); experiment: Superoxide detection in PMA-stimulated neutrophils (FIG. 2, FIG. 3); format: cell-based, human; conditions: probe 25 μM solution 50 μL, PMA 0.64 μM solution 50 μL, 37° C., 120 minutes
Description: It is known that, if neutrophils are stimulated by phorbol ester, superoxide is produced. […] A specific testing method will be described below.
Firstly, whole blood donated by a good-health volunteer was heparinized, and it was subjected to centrifugal separation after adding a Mono-Poly resolving medium manufactured by Dainippon Pharmaceutical Co. Ltd. thereto. After the separation, cells were washed with PBS (−) twice, were suspended again at a concentration of 1.0×10^6 or 1.0×10^5 cells/mL by using PBS (+), and were maintained under an ice-cold condition until they were used. […] Fluorescence intensity measurement was conducted immediately (measurement at the time 0), and thereafter, incubation was conducted at 37° C. for 120 minutes. During the incubation, a change of the fluorescence intensity of the cells was measured once every 30 minutes. All of the measurements were conducted by using a CytoFluor II multiwell fluorescence plate reader (trade name) manufactured by PerSeptive Biosystems, Inc. in the U.S., by setting an excitation filter and an emission filter at 485±20 nm and 530±25 nm, respectively.
A horizontal axis of the graph denotes an incubation time (minute), and a vertical axis thereof denotes a fluorescence intensity (au). […]

[6] = Capability as superoxide-detecting fluorescent probe (reactivity with superoxide); format: biochemical
Description: Then, by mainly using the compound 1d as a testing compound, the capability thereof as a superoxide-selective fluorescent probe was evaluated, and moreover, a test in a cell system also was conducted. These tests will be described below.
Thus, it is thought that each compound synthesized from a combination of: a phenolic colorant; and a 2,4-dinitrobenzenesulfonyl group, a 4-trifluoromethyl-2-nitrobenzenesulfonyl group or a 4-nitrobenzenesulfonyl group can be used as a superoxide-detecting fluorescent probe similarly. An example of the usage thereof will be shown in Scheme 8 below. Furthermore, it can be expected that a compound for a fluorescent probe having characteristics that are suitable for its application purpose can be designed and developed freely, by designing the compound of the present invention freely within the limitation defined by the general formula (I) and using the fluorescence mechanism developed by the inventors of the present invention, without being limited to the above-described combinations. Examples of the application purpose of the compound of the present invention are varied, including an application to a faintly coloring technique using superoxide.

## O=C1OC2(c3ccccc31)c1cc(F)c(OS(=O)(=O)c3ccc([N+](=O)[O-])cc3[N+](=O)[O-])c(F)c1Oc1c2cc(F)c(OS(=O)(=O)c2ccc([N+](=O)[O-])cc2[N+](=O)[O-])c1F [Compound 1d]
[1]
  fluorescent response, ascorbic acid: 11
[2]
  fluorescent response, propylamine: 10
[3]
  fluorescent response, diethylamine: 11
[4]
  fluorescent response, glucose: 10
[5]
  detection of superoxide from PMA-stimulated neutrophils: could detect superoxide with high sensitivity in a cell system also
[6]
  fluorescence response by reacting with superoxide: particularly superior in sensitivity
